Experimental data reported in patent US5001223A, “Parathyroid hormone antagonists with enhanced metabolic properties” (Merck & Co., Inc., priority 1989, dated 1991).

Biological target: T1, parathyroid hormone cell surface receptor (bovine renal cortical plasma membranes) (Bos taurus, UniProt Q1LZF7)
T1 construct: from tissue; host or cells: bovine renal cortex plasma membranes
T1 sequence (Q1LZF7 29-589): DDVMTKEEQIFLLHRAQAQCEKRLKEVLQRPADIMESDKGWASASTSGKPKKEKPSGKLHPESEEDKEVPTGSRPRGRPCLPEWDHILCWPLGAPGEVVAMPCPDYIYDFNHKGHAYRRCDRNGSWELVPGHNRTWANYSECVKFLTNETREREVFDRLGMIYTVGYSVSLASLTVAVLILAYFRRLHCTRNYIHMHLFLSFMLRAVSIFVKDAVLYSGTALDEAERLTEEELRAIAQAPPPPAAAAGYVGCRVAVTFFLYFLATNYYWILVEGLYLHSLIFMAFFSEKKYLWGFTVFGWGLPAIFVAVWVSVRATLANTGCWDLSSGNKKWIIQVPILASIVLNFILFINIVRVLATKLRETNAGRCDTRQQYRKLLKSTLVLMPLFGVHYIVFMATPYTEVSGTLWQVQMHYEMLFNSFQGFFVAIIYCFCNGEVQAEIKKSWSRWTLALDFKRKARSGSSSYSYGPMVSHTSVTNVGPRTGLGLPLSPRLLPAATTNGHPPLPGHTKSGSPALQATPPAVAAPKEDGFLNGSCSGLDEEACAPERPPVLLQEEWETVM
Test: PTH binding assay (receptor assay, radioligand [Nle^8,18,^125 I-Tyr^34 ]bPTH(1-34)NH2)
Details: radioligand 25,000 cpm, Tris-containing buffer, 30 min. at 21° C.
Description: PTH analogues were analysed in a new receptor assay which modified the assay reported in Rosenblatt et al., Endocrin. 107: 545-550 (1980). The binding assay used [Nle^8,18,^125 I-Tyr^34 ]bPTH(1-34)NH2which was purified by HPLC (Novapak C18, 32-35% CH3 CN in 0.1% TFA) and was stored as aliquots in 25 mM TrisHCl/1% BSA at -70° C. Bovine renal cortical plasma membranes were incubated with radioligand (25,000 cpm) in a Tris-containing buffer (250 ul) for 30 min. at 21° C. Once equilibrium was reached, bound and free radioligand were separated by centrifugation. High specific binding (85%) to bovine renal cortical membranes was obtained consistently.

Ki: 82 ± 14 nM
SMILES: CN[C@@H](Cc1ccccc1)C(=O)N[C@@H](CCSC)C(=O)N[C@@H](Cc1c[nH]cn1)C(=O)N[C@@H](CC(N)=O)C(=O)N[C@@H](CC(C)C)C(=O)NCC(=O)N[C@@H](CCCCN)C(=O)N[C@@H](Cc1c[nH]cn1)C(=O)N[C@@H](CC(C)C)C(=O)N[C@@H](CO)C(=O)N[C@@H](CO)C(=O)N[C@@H](CCSC)C(=O)N[C@@H](CCC(=O)O)C(=O)N[C@@H](CCCNC(=N)N)C(=O)N[C@H](C(=O)N[C@@H](CCC(=O)O)C(=O)N[C@@H](Cc1c[nH]c2ccccc12)C(=O)N[C@@H](CC(C)C)C(=O)N[C@@H](CCCNC(=N)N)C(=O)N[C@@H](CCCCN)C(=O)N[C@@H](CCCCN)C(=O)N[C@@H](CC(C)C)C(=O)N[C@@H](CCC(N)=O)C(=O)N[C@@H](CC(=O)O)C(=O)N[C@H](C(=O)N[C@@H](Cc1c[nH]cn1)C(=O)N[C@@H](CC(N)=O)C(=O)N[C@@H](Cc1ccc(O)cc1)C(N)=O)C(C)C)C(C)C [[NMePhe^7,Tyr^34]bPTH(7-34)NH2]
